From patent publication US20060069132A1, “Azolecarboxamide herbicides” (priority 2004, published 2006)

How the values were obtained:
Test in all cases: Test E pre-/postemergence herbicide test
Conditions in all cases: Preemergence
bermudagrass = format: in vivo, Cynodon dactylon
Procedure, shortened: (§1)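 Pre-/postemergence spray, solvent + surfactant vehicle; post timing 1- to 4-leaf stage (2–18 cm). Greenhouse 12–14 d. Visual score 0 (no effect) to 100 (complete control) relative to controls.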

green foxtail = format: in vivo, Setaria viridis
Procedure, shortened: as §1

common ragweed = format: in vivo, Ambrosia elatior
Procedure, shortened: as §1

guineagrass = format: in vivo, Panicum maximum
Procedure, shortened: as §1

dallisgrass = format: in vivo, Paspalum dilatatum
Procedure, shortened: as §1

barnyardgrass = format: in vivo, Echinochloa crus-galli
Procedure, shortened: as §1

southern sandbur = format: in vivo, Cenchrus echinatus
Procedure, shortened: as §1

common sowthistle = format: in vivo, Sonchus oleraceous
Procedure, shortened: as §1

Italian ryegrass = format: in vivo, Lolium multiflorum
Procedure, shortened: as §1

broadleaf signalgrass = format: in vivo, Brachiaria platyphylla
Procedure, shortened: as §1

common chickweed = format: in vivo, Stellaria media
Procedure, shortened: as §1

quackgrass = format: in vivo, Elytrigia repens
Procedure, shortened: as §1

Canada horseweed = format: in vivo, Erigeron Canadensis
From the text: Seeds of plant species selected from bipinnate beggarticks (Bidens bipinnata L.), hairy beggarticks (Bidens radiata Thuill.), bermudagrass (Cynodon dactylon (L.) Pers.), Surinam grass (Urochloa decumbens (Staph) R. D. Webster, previously named Brachiaria decumbens Stapf), large crabgrass (Digitaria sanguinalis (L.) Scop.), green foxtail (Setaria viridis (L.) P. Beauv.), goosegrass (Eleusine indica (L.) Gaertn.), johnsongrass (Sorghum halepense (L.) Pers.), kochia (Kochia scoparia (L.) Schrad.), pitted morningglory (Ipomoea lacunosa L.), purple nutsedge (Cyperus rotundus L.), common ragweed (Ambrosia elatior L.), mustard (Brassica nigra (L.) W. D. J. Koch), guineagrass (Panicum maximum Jacq.), dallisgrass (Paspalum dilatatum Poir.), barnyardgrass (Echinochloa crus-galli (L). P. Beauv.), southern sandbur (Cenchrus echinatus L.), common sowthistle (Sonchus oleraceous L.), prickly sida (Sida spinosa L.), Italian ryegrass (Lolium multiflorum Lam.), common purslane (Portulaca oleracea L.), broadleaf signalgrass (Brachiaria platyphylla (Griseb.) Nash), common groundsel (Senecio vulgaris L.), common chickweed (Stellaria media (L.) Vill/Cyr.), tropical spiderwort (Commelina benghalensis L.), annual bluegrass (Poa annua L.), downy bromegrass (Bromus tectorum L.), itchgrass (Rottboellia cochinchinensis (L.) L.f.), quackgrass (Elytrigia repens (L.) Nevski), Canada horseweed (Erigeron Canadensis L.), field bindweed (Convolvulus arvensis L.), spotted spurge (Euphorbia maculata L.), common mallow (Malva sylvestris (=s silvestris) L.), and Russian thistle (Salsola kali L. ssp. Ruthenica (Iljin) Soo) were planted and treated preemergence with test chemicals formulated in a non-phytotoxic solvent mixture which included a surfactant.
At the same time, plants selected from these weed species were treated with postemergence applications of some of the test chemicals formulated in the same manner. Plants ranged in height from 2 to 18 cm (1- to 4-leaf stage) for postemergence treatments. Treated plants and controls were maintained in a greenhouse for 12 to 14 days, after which time all species were compared to controls and visually evaluated. Plant response ratings, summarized in Table E, are based on a scale of 0 to 100 where 0 is no effect and 100 is complete control. A dash (-) response means no test result.

field bindweed = format: in vivo, Convolvulus arvensis
Procedure, shortened: as §1

common mallow = format: in vivo, Malva sylvestris
Procedure, shortened: as §1

Russian thistle = format: in vivo, Salsola kali
Procedure, shortened: as §1

[1] = 250 g ai/ha, scale 0 (no effect) to 100 (complete control)
[2] = 500 g ai/ha, scale 0 (no effect) to 100 (complete control)

Cc1nn(C(C)(C)C)nc1C(=O)Nc1cccc(C(=O)N(C)C)c1 [Compound 391]
85: Plant response rating, Bermudagrass (bermudagrass; 62 g ai/ha, scale 0 to 100)
75: Plant response rating, Ragweed (common ragweed; 125 g ai/ha, scale 0 to 100) | Plant response rating, Sowthistle (common sowthistle; 125 g ai/ha, scale 0 to 100)
40: Plant response rating, Signalgrass (broadleaf signalgrass; 62 g ai/ha, scale 0 to 100) | Plant response rating, Quackgrass (quackgrass; 62 g ai/ha, scale 0 to 100)
80: Plant response rating, Foxtail, Green (green foxtail; 125 g ai/ha, scale 0 to 100) | Plant response rating, Guineagrass (guineagrass; 125 g ai/ha, scale 0 to 100) | Plant response rating, Dallisgrass (dallisgrass; 125 g ai/ha, scale 0 to 100) | Plant response rating, Sandbur (southern sandbur; [1]) | Plant response rating, Sandbur (southern sandbur; [2]) | Plant response rating, Ryegrass, Italian (Italian ryegrass; 125 g ai/ha, scale 0 to 100) | Plant response rating, Horseweed (Canada horseweed; 62 g ai/ha, scale 0 to 100) | Plant response rating, Mallow (common mallow; 62 g ai/ha, scale 0 to 100) | Plant response rating, Mallow (common mallow; 125 g ai/ha, scale 0 to 100)
60: Plant response rating, Foxtail, Green (green foxtail; 62 g ai/ha, scale 0 to 100) | Plant response rating, Guineagrass (guineagrass; 62 g ai/ha, scale 0 to 100) | Plant response rating, Dallisgrass (dallisgrass; 62 g ai/ha, scale 0 to 100)
100: Plant response rating, Foxtail, Green (green foxtail; [2]) | Plant response rating, Ragweed (common ragweed; [2]) | Plant response rating, Guineagrass (guineagrass; [1]) | Plant response rating, Guineagrass (guineagrass; [2]) | Plant response rating, Barnyardgrass (barnyardgrass; 125 g ai/ha, scale 0 to 100) | Plant response rating, Barnyardgrass (barnyardgrass; [1]) | Plant response rating, Barnyardgrass (barnyardgrass; [2]) | Plant response rating, Sowthistle (common sowthistle; [1]) | Plant response rating, Sowthistle (common sowthistle; [2]) | Plant response rating, Chickweed (common chickweed; [1]) | Plant response rating, Chickweed (common chickweed; [2]) | Plant response rating, Horseweed (Canada horseweed; [1]) | Plant response rating, Horseweed (Canada horseweed; [2]) | Plant response rating, Mallow (common mallow; [1]) | Plant response rating, Mallow (common mallow; [2]) | Plant response rating, Thistle (Russian thistle; 125 g ai/ha, scale 0 to 100) | Plant response rating, Thistle (Russian thistle; [2])
70: Plant response rating, Sandbur (southern sandbur; 125 g ai/ha, scale 0 to 100) | Plant response rating, Signalgrass (broadleaf signalgrass; 125 g ai/ha, scale 0 to 100)
90: Plant response rating, Bermudagrass (bermudagrass; 125 g ai/ha, scale 0 to 100) | Plant response rating, Signalgrass (broadleaf signalgrass; [1]) | Plant response rating, Signalgrass (broadleaf signalgrass; [2]) | Plant response rating, Chickweed (common chickweed; 62 g ai/ha, scale 0 to 100) | Plant response rating, Chickweed (common chickweed; 125 g ai/ha, scale 0 to 100) | Plant response rating, Quackgrass (quackgrass; 125 g ai/ha, scale 0 to 100) | Plant response rating, Bindweed, Field (field bindweed; 125 g ai/ha, scale 0 to 100) | Plant response rating, Bindweed, Field (field bindweed; [1])
50: Plant response rating, Ragweed (common ragweed; 62 g ai/ha, scale 0 to 100) | Plant response rating, Barnyardgrass (barnyardgrass; 62 g ai/ha, scale 0 to 100) | Plant response rating, Sowthistle (common sowthistle; 62 g ai/ha, scale 0 to 100)
20: Plant response rating, Bindweed, Field (field bindweed; 62 g ai/ha, scale 0 to 100)
10: Plant response rating, Sandbur (southern sandbur; 62 g ai/ha, scale 0 to 100)
95: Plant response rating, Bermudagrass (bermudagrass; [1]) | Plant response rating, Bermudagrass (bermudagrass; [2]) | Plant response rating, Foxtail, Green (green foxtail; [1]) | Plant response rating, Ragweed (common ragweed; [1]) | Plant response rating, Dallisgrass (dallisgrass; [1]) | Plant response rating, Dallisgrass (dallisgrass; [2]) | Plant response rating, Ryegrass, Italian (Italian ryegrass; [1]) | Plant response rating, Ryegrass, Italian (Italian ryegrass; [2]) | Plant response rating, Quackgrass (quackgrass; [1]) | Plant response rating, Quackgrass (quackgrass; [2]) | Plant response rating, Horseweed (Canada horseweed; 125 g ai/ha, scale 0 to 100) | Plant response rating, Bindweed, Field (field bindweed; [2])

CCc1nn(C(C)(C)CC)nc1C(=O)Nc1cccc(C(=O)N(C)C)c1 [Compound 372]
10: Plant response rating, Bermudagrass (bermudagrass; 62 g ai/ha, scale 0 to 100) | Plant response rating, Foxtail, Green (green foxtail; 62 g ai/ha, scale 0 to 100) | Plant response rating, Ragweed (common ragweed; 62 g ai/ha, scale 0 to 100) | Plant response rating, Dallisgrass (dallisgrass; 62 g ai/ha, scale 0 to 100) | Plant response rating, Sowthistle (common sowthistle; 62 g ai/ha, scale 0 to 100) | Plant response rating, Signalgrass (broadleaf signalgrass; 125 g ai/ha, scale 0 to 100) | Plant response rating, Bindweed, Field (field bindweed; 62 g ai/ha, scale 0 to 100) | Plant response rating, Bindweed, Field (field bindweed; 125 g ai/ha, scale 0 to 100)
40: Plant response rating, Ragweed (common ragweed; [1]) | Plant response rating, Guineagrass (guineagrass; 62 g ai/ha, scale 0 to 100) | Plant response rating, Sowthistle (common sowthistle; 125 g ai/ha, scale 0 to 100) | Plant response rating, Sowthistle (common sowthistle; [1]) | Plant response rating, Signalgrass (broadleaf signalgrass; [1]) | Plant response rating, Thistle (Russian thistle; 125 g ai/ha, scale 0 to 100)
50: Plant response rating, Foxtail, Green (green foxtail; 125 g ai/ha, scale 0 to 100) | Plant response rating, Dallisgrass (dallisgrass; 125 g ai/ha, scale 0 to 100) | Plant response rating, Barnyardgrass (barnyardgrass; 62 g ai/ha, scale 0 to 100) | Plant response rating, Bindweed, Field (field bindweed; [1]) | Plant response rating, Mallow (common mallow; 62 g ai/ha, scale 0 to 100) | Plant response rating, Mallow (common mallow; 125 g ai/ha, scale 0 to 100)
85: Plant response rating, Dallisgrass (dallisgrass; [2])
0: Plant response rating, Signalgrass (broadleaf signalgrass; 62 g ai/ha, scale 0 to 100)
95: Plant response rating, Guineagrass (guineagrass; [2]) | Plant response rating, Barnyardgrass (barnyardgrass; [2]) | Plant response rating, Sowthistle (common sowthistle; [2]) | Plant response rating, Ryegrass, Italian (Italian ryegrass; [1]) | Plant response rating, Ryegrass, Italian (Italian ryegrass; [2]) | Plant response rating, Chickweed (common chickweed; [1]) | Plant response rating, Chickweed (common chickweed; [2]) | Plant response rating, Quackgrass (quackgrass; [1]) | Plant response rating, Quackgrass (quackgrass; [2]) | Plant response rating, Horseweed (Canada horseweed; [1])
70: Plant response rating, Foxtail, Green (green foxtail; [2]) | Plant response rating, Ragweed (common ragweed; [2]) | Plant response rating, Barnyardgrass (barnyardgrass; 125 g ai/ha, scale 0 to 100) | Plant response rating, Sandbur (southern sandbur; [2]) | Plant response rating, Ryegrass, Italian (Italian ryegrass; 125 g ai/ha, scale 0 to 100)
20: Plant response rating, Ragweed (common ragweed; 125 g ai/ha, scale 0 to 100) | Plant response rating, Sandbur (southern sandbur; 62 g ai/ha, scale 0 to 100)
100: Plant response rating, Horseweed (Canada horseweed; [2])
90: Plant response rating, Bermudagrass (bermudagrass; [2]) | Plant response rating, Chickweed (common chickweed; 125 g ai/ha, scale 0 to 100) | Plant response rating, Mallow (common mallow; [2])
30: Plant response rating, Sandbur (southern sandbur; 125 g ai/ha, scale 0 to 100) | Plant response rating, Quackgrass (quackgrass; 62 g ai/ha, scale 0 to 100)
60: Plant response rating, Bermudagrass (bermudagrass; 125 g ai/ha, scale 0 to 100) | Plant response rating, Bermudagrass (bermudagrass; [1]) | Plant response rating, Foxtail, Green (green foxtail; [1]) | Plant response rating, Sandbur (southern sandbur; [1]) | Plant response rating, Ryegrass, Italian (Italian ryegrass; 62 g ai/ha, scale 0 to 100) | Plant response rating, Signalgrass (broadleaf signalgrass; [2]) | Plant response rating, Chickweed (common chickweed; 62 g ai/ha, scale 0 to 100) | Plant response rating, Quackgrass (quackgrass; 125 g ai/ha, scale 0 to 100) | Plant response rating, Bindweed, Field (field bindweed; [2])
80: Plant response rating, Guineagrass (guineagrass; 125 g ai/ha, scale 0 to 100) | Plant response rating, Guineagrass (guineagrass; [1]) | Plant response rating, Dallisgrass (dallisgrass; [1]) | Plant response rating, Barnyardgrass (barnyardgrass; [1]) | Plant response rating, Horseweed (Canada horseweed; 62 g ai/ha, scale 0 to 100) | Plant response rating, Horseweed (Canada horseweed; 125 g ai/ha, scale 0 to 100) | Plant response rating, Mallow (common mallow; [1]) | Plant response rating, Thistle (Russian thistle; [2])
